Experimental data taken from patent US20090270594A1, “USE OF THYMOSIN ALPHA 1 FOR THE PREPARATION OF A MEDICAMENT FOR THE PREVENTION AND TREATMENT OF ALLERGIES” (SIGMA-TAU INDUSTRIE FARMACEUTICHE, priority 2006, published 2009).
Where no end group is shown, it is not given here.

What was measured:
[1] = test system: mice with ABPA (allergy to Aspergillus fumigatus); test: Allergic Bronchopulmonary Aspergillosis (ABPA) allergy model in mice; assay type: in vivo
Experimental: (§1) Evaluation of the efficacy of thymosin alpha 1 in two experimental models of allergy. A model consists of inducing an allergic state by administering chicken ovalbumin (OVA) in allergising conditions. The other consists of inducing the allergy from environmental allergens, and namely the spores of the fungus Aspergillus fumigatus.
The induction of the allergic pathology due to Aspergillus (called ABPA, Allergic Bronchopulmonary Aspergillosis) and to OVA was carried out as described in table 1 (Montagnoli C, Fallarino F, Gaziano R, Bozza S, Bellocchio S, Zelante T, Kurup W P, Pitzurra L, Puccetti P, Romani L. Immunity and tolerance to Aspergillus involve functionally distinct regulatory T cells and tryptophan catabolism. J. Immunol. 2006, 176:1712-1723). The mice received an intraperitoneal (i.p.) and subcutaneous (s.c.) injection of 5 μg of A. fumigatus culture filter (CCFA) dissolved in an incomplete Freund adjuvant (Sigma) followed by two consecutive intranasal injections (one week apart) of 20 μg CCFA. One week after the last intranasal contact, the mice received 10^7 Aspergillus conidia intratracheally (i.t.) […]. The mice received 10 μg of OVA via i.p./s.c. on day 0, followed by two consecutive intranasal injections (one week apart) of 10 μg of OVA (chicken OVA grade VI; Sigma-Aldrich) together with 1 mg of Al(OH)3 (Alum Inject; Pierce, Rockford, Ill.) as adjuvant dissolved in a sterile saline solution. The mice were analysed for inflammation and allergy parameters a week later. For the histological analysis, sections (from 3 to 4 μm) of tissues immersed in paraffin were coloured with periodical Schiff acid (PAS) to evaluate the general morphology. The lung sections coloured with PAS were examined at 50, 200 and 400 enlargements to assess the “Globet” type cells typical of the allergy.
The differential total and total lung cell counts were carried out by colouring the lung of allergic mice with May-Grünwald reagents (Giemsa Sigma) before the analysis.
(§2) The collagen levels in the lungs were determined as described (Montagnoli C, Fallarino F, Gaziano R, Bozza S, Bellocchio S, Zelante T, Kurup WP, Pitzurra L, Puccetti P, Romani L. Immunity and tolerance to Aspergillus involve functionally distinct regulatory T cells and tryptophan catabolism. J. Immunol. 2006, 176:1712-1723). The concentrations of hydroxyproline were calculated by means of a standard hydroxyproline curve (zero to 100 μg/ml).
(§3) IgE determination in the serum. Total IgE in the serum samples was determined by enzyme-linked immunosorbent assay (Montagnoli C, Fallarino F, Gaziano R, Bozza S, Bellocchio S, Zelante T, Kurup WP, Ptzurra L, Puccetti P, Romani L. Immunity and tolerance to Aspergillus involve functionally distinct regulatory T cells and tryptophan catabolism. J. Immunol. 2006, 176:1712-1723 in the serum samples was measured by enzyme-linked immunosorbent assay).
Treatment with thymosin alpha 1. Tα1 (purchased from Sigma, St. Louis, Mo., USA; product no. T3410; molecular formula C129H215N33O55) and the scrambled peptide were supplied as sterile dried powders. The powders were reconstituted in sterile water (endotoxin levels were <0.03 pg/ml, by means of standard Limulus lysate assay). Tα1 was administered at a dosage of 50 and 200 microgrammes/kg i.p. according to the design reported in tables 1 and 2, both in the ABPA model and in the allergy from OVA. Mice controls received the scrambled peptide. In selected experiments, the mice were treated for comparison with a known agent that could improve the allergic symptomatology: oligodeoxynucleotide, containing non-methylated CpG (CpG) sequences.

[2] = test system: mice with allergy from OVA; test: Allergy from OVA (chicken ovalbumin) model in mice; assay type: in vivo; conditions: FIG. 1B
Experimental: as §1
The induction of the allergic pathology due to Aspergillus (called ABPA, Allergic Bronchopulmonary Aspergillosis) and to OVA was carried out as described in table 1 (Montagnoli C, Fallarino F, Gaziano R, Bozza S, Bellocchio S, Zelante T, Kurup W P, Pitzurra L, Puccetti P, Romani L. Immunity and tolerance to Aspergillus involve functionally distinct regulatory T cells and tryptophan catabolism. J. Immunol. 2006, 176:1712-1723). The mice received an intraperitoneal (i.p.) and subcutaneous (s.c.) injection of 5 μg of A. fumigatus culture filter (CCFA) dissolved in an incomplete Freund adjuvant (Sigma) followed by two consecutive intranasal injections (one week apart) of 20 μg CCFA. […] The mice were analysed for inflammation and allergy parameters a week later. […]
as §2
as §3, with “assay). […]” for “assay).”

[3] = FIG. 1A, Tα1 200 microgrammes i.p., both prophylaxis and therapy, vs control mice
[4] = Tα1 200 microgrammes i.p., both prophylaxis and therapy, vs control mice

thymosin alpha 1 (Ac-SDAAVDTSSEITTKDLKEKKEVVEEAEN; ends and bridges not checked; UniProt P06454 2-29, looked up) [Tα1, thymic peptide found in nature; purchased from Sigma, product no; T3410]
IgE antibodies [1, 3]: drastic reduction
local production of hydroxyproline [1, 3]: drastic reduction
reduction in allergic inflammatory parameters (hydroxyproline, IgE) at lower dosages ([1]; FIG. 1A, lower dosages (50 microgrammes/kg i.p.)): not at lower dosages
efficacy in reducing the allergic inflammation parameters, Tα1 compared with CpG ([1]; FIG. 2, both in prophylaxis and therapy): comparable efficacy
recruitment of monocytes/macrophages (pulmonary) ([1]; FIG. 3): did not have any appreciable effects
recruitment of neutrophils (pulmonary) ([1]; FIG. 3): did not have any appreciable effects
recruitment of eosinophils (pulmonary) ([1]; FIG. 3, both in prophylaxis and in therapy): drastic reduction
hyperplasia of submucose glandular (Globet) cells in pulmonary sections ([1]; FIG. 4, histology (PAS)): decreased hyperplasia
inflammatory infiltrate in pulmonary sections ([1]; FIG. 4, histology (PAS), prophylactic treatment): considerably reduced
IgE antibodies [2, 4]: drastic reduction
local production of hydroxyproline [2, 4]: drastic reduction
reduction in allergic inflammatory parameters (hydroxyproline, IgE) at lower dosages ([2]; lower dosages (50 microgrammes/kg i.p.)): not at lower dosages
